According to ChEMBL document CHEMBL5053532, “Bradykinin-Potentiating Peptide-Paclitaxel Conjugate Directed at Ectopically Expressed Angiotensin-Converting Enzyme in Triple-Negative Breast Cancer” (J Med Chem, 2021):
Activity calls are given as the source filed them. The rule behind the calls is not given here. Where a SMILES comes first, the peptide text is derived from it. The star is where a group is joined. Paclitaxel(2'-O-succinyl) = CC(=O)O[C@H]1C(=O)[C@@]2(C)[C@H]([C@H](OC(=O)c3ccccc3)[C@]3(O)C[C@H](OC(=O)[C@H](OC(=O)CCC(=O)*)[C@@H](NC(=O)c4ccccc4)c4ccccc4)C(C)=C1C3(C)C)[C@]1(OC(C)=O)CO[C@@H]1C[C@@H]2O

What was measured:
[1] = system: HEK-293T; test: Potency index, ratio of PTX IC50 to test compound IC50 antiproliferative activity against ACE-negative human HEK293T cells incubated for 48 hrs by MTT assay; type: functional
[2] = Drug uptake in BALB/c mouse xenografted with human […] cells assessed as PTX level in lung at 17.6 micromol/kg, ip measured after 15 mins to 24 hrs; type: ADME, organism-based; conditions: in vivo, 0.25 h, dose 17.6 µmol/kg
[3] = Stability of the compound in PBS buffer assessed as half life at 10 uM measured after 72 hrs by LC/MS analysis; type: physicochemical
[4] = system: Mus musculus; test: Toxicity in BALB/c mouse xenografted with human […] cells assessed as decrease in body weight at 2.4 micromol/kg, ip measured after 28 days relative to control; type: organism-based; parameters: scale not given: the % may be the effect or the level left; conditions: 672 h, at 2.4 µmol/kg, time 28 day
[5] = Stability of the compound in rat plasma assessed as half life at 10 uM measured after 72 hrs by LC/MS analysis; type: ADME, cell-free
[6] = system: Mus musculus; test: Toxicity in BALB/c mouse xenografted with human […] cells assessed as reduction in WBC count at 9.6 micromol/kg, ip measured after 28 days relative to control; type: organism-based; parameters: scale not given: the % may be the effect or the level left; conditions: 672 h, at 9.6 µmol/kg, time 28 day
[7] = Stability of the compound in rat plasma assessed as drug residual at 10 uM measured after 48 hrs by LC/MS analysis; type: ADME, cell-free; conditions: read-out: Stability
[8] = Acute toxicity in BALB/c mouse assessed as survival at 80 mg/kg, ip measured for 15 days; type: organism-based; conditions: in vivo, 360 h, time 15 day
[9] = system: MDA-MB-468; test: Antitumor activity in human […] cells xenografted in Balb/c mouse assessed as reduction in tumor growth at 9.6 micromol/kg, ip measured after 28 days relative to control; type: functional; parameters: scale not given: the % may be the effect or the level left; conditions: dose 9.6 µmol/kg, time 28 day
[10] = system: MDA-MB-231; test: Antiproliferative activity against ACE-positive human MDA-MB-231 cells incubated for 48 hrs by MTT assay; type: functional, cell-based; conditions: MDA-MB-231, 48 h
[11] = Drug uptake in BALB/c mouse xenografted with human […] cells assessed as PTX level in tumor at 17.6 micromol/kg, ip measured after 1 hr; type: ADME, organism-based, Neoplasm; conditions: in vivo, dose 17.6 µmol/kg
[12] = system: MDA-MB-468; test: Induction of apoptosis in ACE-positive human MDA-MB-468 cells assessed as increase in apoptotic cells at 10 nM measured after 48 hrs by Annexin V-FITC/PI staining based fluorescence microscopy; type: functional, cell-based
[13] = Drug uptake in BALB/c mouse xenografted with human […] cells assessed as PTX level in liver at 17.6 micromol/kg, ip measured after 15 mins to 24 hrs; type: ADME, organism-based; conditions: in vivo, 0.25 h, dose 17.6 µmol/kg
[14] = Acute toxicity in BALB/c mouse assessed as rate of weight loss at 100 mg/kg, ip measured for 15 days; type: organism-based; conditions: in vivo, 360 h, time 15 day
[15] = molecular target: Angiotensin-converting enzyme (Homo sapiens, UniProt P12821); test: Binding affinity to human recombinant ACE protein assessed as dissociation constant incubated for 15 mins by […] binding analysis
Chain of Angiotensin-converting enzyme (P12821 whole entry): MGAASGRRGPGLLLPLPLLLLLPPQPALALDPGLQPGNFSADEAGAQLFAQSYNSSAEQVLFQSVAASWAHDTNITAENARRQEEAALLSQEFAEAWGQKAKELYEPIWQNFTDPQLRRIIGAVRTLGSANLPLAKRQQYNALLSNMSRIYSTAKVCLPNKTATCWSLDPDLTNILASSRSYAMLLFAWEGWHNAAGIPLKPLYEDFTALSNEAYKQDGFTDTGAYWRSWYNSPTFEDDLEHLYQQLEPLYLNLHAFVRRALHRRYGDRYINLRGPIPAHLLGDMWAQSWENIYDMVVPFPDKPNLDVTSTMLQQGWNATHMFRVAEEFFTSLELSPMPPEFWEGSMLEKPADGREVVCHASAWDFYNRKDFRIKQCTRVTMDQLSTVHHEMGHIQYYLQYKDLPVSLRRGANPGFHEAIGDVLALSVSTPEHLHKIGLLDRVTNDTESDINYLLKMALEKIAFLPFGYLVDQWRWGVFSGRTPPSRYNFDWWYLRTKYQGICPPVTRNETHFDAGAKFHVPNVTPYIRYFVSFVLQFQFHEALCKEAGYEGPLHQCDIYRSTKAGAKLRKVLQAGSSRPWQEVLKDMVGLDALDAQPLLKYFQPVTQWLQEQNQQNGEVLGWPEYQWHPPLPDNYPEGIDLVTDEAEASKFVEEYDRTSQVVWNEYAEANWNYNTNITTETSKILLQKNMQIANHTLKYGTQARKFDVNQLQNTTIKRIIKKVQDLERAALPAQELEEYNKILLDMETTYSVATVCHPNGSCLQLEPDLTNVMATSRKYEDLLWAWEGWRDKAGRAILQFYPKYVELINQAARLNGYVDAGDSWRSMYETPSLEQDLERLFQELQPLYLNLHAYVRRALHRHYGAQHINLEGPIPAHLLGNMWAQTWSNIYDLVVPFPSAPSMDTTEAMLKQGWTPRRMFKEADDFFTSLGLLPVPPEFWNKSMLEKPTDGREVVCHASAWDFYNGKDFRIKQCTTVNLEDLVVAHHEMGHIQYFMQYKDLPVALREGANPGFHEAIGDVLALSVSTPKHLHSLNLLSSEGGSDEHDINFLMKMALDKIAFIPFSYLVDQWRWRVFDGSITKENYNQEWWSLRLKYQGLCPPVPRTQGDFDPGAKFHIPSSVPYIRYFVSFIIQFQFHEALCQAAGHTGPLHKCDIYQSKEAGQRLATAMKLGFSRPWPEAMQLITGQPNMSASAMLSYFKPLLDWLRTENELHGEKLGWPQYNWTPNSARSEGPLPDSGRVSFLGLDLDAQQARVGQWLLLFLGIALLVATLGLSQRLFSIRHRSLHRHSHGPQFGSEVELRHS

[16] = system: MDA-MB-231; test: Induction of apoptosis in ACE-positive human MDA-MB-231 cells assessed as increase in apoptotic cells at 10 nM measured after 48 hrs by Annexin V-FITC/PI staining based fluorescence microscopy; type: functional, cell-based
[17] = Drug uptake in BALB/c mouse xenografted with human […] cells assessed as PTX level in tumor at 17.6 micromol/kg, ip measured after 4 hrs; type: ADME, organism-based, Neoplasm; conditions: in vivo, dose 17.6 µmol/kg
[18] = Acute toxicity in BALB/c mouse assessed as rate of weight loss at 80 mg/kg, ip measured for 15 days; type: organism-based; conditions: in vivo, 360 h, time 15 day
[19] = Acute toxicity in BALB/c mouse assessed as rate of weight loss at 60 mg/kg, ip measured for 15 days; type: organism-based; conditions: in vivo, 360 h, time 15 day
[20] = system: Mus musculus; test: Toxicity in BALB/c mouse xenografted with human […] cells assessed as reduction in WBC count at 2.4 micromol/kg, ip measured after 28 days relative to control; type: organism-based; parameters: scale not given: the % may be the effect or the level left; conditions: 672 h, at 2.4 µmol/kg, time 28 day
[21] = system: Mus musculus; test: Toxicity in BALB/c mouse xenografted with human […] cells assessed as decrease in body weight at 9.6 micromol/kg, ip measured after 28 days relative to control; type: organism-based; parameters: scale not given: the % may be the effect or the level left; conditions: 672 h, at 9.6 µmol/kg, time 28 day
[22] = system: MDA-MB-468; test: Antiproliferative activity against ACE-positive human MDA-MB-468 cells incubated for 48 hrs by MTT assay; type: functional, cell-based; conditions: MDA-MB-468, 48 h
[23] = system: MDA-MB-468; test: Antitumor activity in human […] cells xenografted in Balb/c mouse assessed as tumor weight at 2.4 micromol/kg, ip measured after 28 days (reference value: 0.43 g); type: functional; conditions: dose 2.4 µmol/kg, time 28 day
[24] = system: HEK-293T; test: Antiproliferative activity against ACE-negative human HEK293T cells incubated for 48 hrs by MTT assay; type: functional, cell-based
[25] = Acute toxicity in BALB/c mouse assessed as survival at 60 mg/kg, ip measured for 15 days; type: organism-based; conditions: in vivo, 360 h, time 15 day
[26] = Drug uptake in human MDA-MB-468 cells assessed as increase in PTX uptake rate at 10 to 20 uM measured after 2 hrs; type: ADME, cell-based; conditions: mda-mb-468, 2 h, dose 10-20 µM
[27] = system: MDA-MB-468; test: Antitumor activity in human […] cells xenografted in Balb/c mouse assessed as tumor weight at 9.6 micromol/kg, ip measured after 28 days (reference value: 0.43 g); type: functional; conditions: dose 9.6 µmol/kg, time 28 day
[28] = Acute toxicity in BALB/c mouse assessed as survival at 100 mg/kg, ip measured for 15 days; type: organism-based; conditions: in vivo, 360 h, time 15 day
[29] = system: MDA-MB-468; test: Potency index, ratio of PTX IC50 to test compound IC50 antiproliferative activity against ACE-positive human MDA-MB-468 cells incubated for 48 hrs by MTT assay; type: functional
[30] = system: MDA-MB-468; test: Antitumor activity in human […] cells xenografted in Balb/c mouse assessed as reduction in tumor growth at 2.4 micromol/kg, ip measured after 4 days; type: functional, organism-based; conditions: dose 2.4 µmol/kg, time 4.0 day
[31] = system: HEK-293T; test: Antiproliferative activity against human HEK293T cells expressing ACE containing plasmid incubated for 48 hrs by MTT assay; type: functional, cell-based
[32] = system: MDA-MB-468; test: Antitumor activity in human […] cells xenografted in Balb/c mouse assessed as reduction in tumor growth at 2.4 micromol/kg, ip measured after 28 days relative to control; type: functional; parameters: scale not given: the % may be the effect or the level left; conditions: dose 2.4 µmol/kg, time 28 day
[33] = Drug uptake in BALB/c mouse xenografted with human […] cells assessed as PTX level in kidney at 17.6 micromol/kg, ip measured after 15 mins to 24 hrs; type: ADME, organism-based; conditions: in vivo, 0.25 h, dose 17.6 µmol/kg
[34] = system: MDA-MB-231; test: Potency index, ratio of PTX IC50 to test compound IC50 antiproliferative activity against ACE-positive human MDA-MB-231 cells incubated for 48 hrs by MTT assay; type: functional
[35] = Acute toxicity in BALB/c mouse assessed as rate of weight loss at 20 mg/kg, ip measured for 15 days; type: organism-based; conditions: in vivo, 360 h, time 15 day
[36] = Drug uptake in BALB/c mouse xenografted with human […] cells measured in tumor at 17.6 micromol/kg, ip measured after 4 hrs; type: ADME, organism-based, Neoplasm; conditions: dose 17.6 µmol/kg, read-out: Drug uptake
[37] = system: MDA-MB-231; test: Induction of apoptosis in ACE-positive human MDA-MB-231 cells assessed as increase in early apoptotic cells by measuring fragmented nuclei at 10 nM after 48 hrs by DAPI staining based fluorescence microscopy; type: functional, cell-based
[38] = system: Mus musculus; test: Toxicity in BALB/c mouse xenografted with human […] cells assessed as body weight loss at 2.4 micromol/kg, ip measured upto 24 days; type: organism-based; conditions: 576 h, dose 2.4 µmol/kg, time < 24 day
[39] = Acute toxicity in BALB/c mouse assessed as survival at 15 mg/kg, ip measured for 15 days; type: organism-based; conditions: in vivo, 360 h, time 15 day
[40] = Acute toxicity in BALB/c mouse assessed as rate of weight loss at 15 mg/kg, ip measured for 15 days; type: organism-based; conditions: in vivo, 360 h, time 15 day
[41] = Acute toxicity in BALB/c mouse assessed as survival at 20 mg/kg, ip measured for 15 days; type: organism-based; conditions: in vivo, 360 h, time 15 day
[42] = Stability of the compound in PBS buffer assessed as drug residual at 10 uM measured after 72 hrs by LC/MS analysis; type: physicochemical; conditions: read-out: Stability
[43] = Stability of the compound in rat plasma assessed as drug residual at 10 uM measured after 72 hrs by LC/MS analysis; type: ADME, cell-free; conditions: read-out: Stability
[44] = Drug uptake in BALB/c mouse xenografted with human […] cells measured in tumor at 17.6 micromol/kg, ip measured after 1 hr; type: ADME, organism-based, Neoplasm; conditions: dose 17.6 µmol/kg, read-out: Drug uptake

## CC[C@H](C)[C@H](NC(=O)[C@H](CCC(N)=O)NC(=O)[C@@H]1CCCN1C(=O)[C@H](CCCNC(=N)N)NC(=O)[C@@H]1CCCN1C(=O)[C@H](Cc1c[nH]c2ccccc12)NC(=O)[C@H](CCC(=O)O)NC(=O)CCC(=O)O[C@@H](C(=O)O[C@H]1C[C@@]2(O)[C@@H](OC(=O)c3ccccc3)[C@@H]3[C@]4(OC(C)=O)CO[C@@H]4C[C@H](O)[C@@]3(C)C(=O)[C@H](OC(C)=O)C(=C1C)C2(C)C)[C@@H](NC(=O)c1ccccc1)c1ccccc1)C(=O)N1CCC[C@H]1C(=O)N1CCC[C@H]1C(N)=O ({Paclitaxel(2'-O-succinyl)}-EWPRPQIPP-NH2)
[1]
  Ratio IC50: 91.9
[2]
  Drug uptake: Active
[3]
  half-life at 10 µM: 2.41 days
[4]
  Activity: 2.8%
[5]
  half-life at 10 µM: 349 min
[6]
  Activity: 22%
[7]
  remaining at 48 h, 10 µM: 0.169%
[8]
  Activity: Non-Toxic
[9]
  Activity: 62%
[10]
  IC50: 9.5 nM
[11]
  Drug uptake: 18067 ng/g
[12]
  Activity: Active
[13]
  Drug uptake: Active
[14]
  Activity: 7.2%
[15]; read-out: Kd
  Kd: 380 nM
[16]
  Activity: Active
[17]
  Drug uptake: 10458 ng/g
[18]
  Activity: 4.5%
[19]
  Activity: 1.9%
[20]
  Activity: 17%
[21]
  Activity: 6.4%
[22]
  IC50: 12.3 nM
[23]
  Activity: 0.2 g
[24]
  IC50: 616 nM
[25]
  Activity: Non-Toxic
[26]
  Drug uptake: Active
[27]
  Activity: 0.16 g
[28]
  Activity: Non-Toxic
[29]
  Ratio IC50: 4.1
[30]
  Activity: inactive
[31]
  Activity: Active
[32]
  Activity: 54%
[33]
  Drug uptake: Active
[34]
  Ratio IC50: 3.1

## CC(=O)O[C@H]1C(=O)[C@@]2(C)[C@H]([C@H](OC(=O)c3ccccc3)[C@]3(O)C[C@H](OC(=O)[C@H](O)[C@@H](NC(=O)c4ccccc4)c4ccccc4)C(C)=C1C3(C)C)[C@]1(OC(C)=O)CO[C@@H]1C[C@@H]2O [PACLITAXEL]
[35]
  Activity: 8.7%
[36]
  concentration at 4 h: 2250 ng/g
[37]
  Activity: Active
[9]
  Activity: 30%
[10]
  IC50: 3.1 nM
[38]
  Activity: Non-Toxic
[12]
  Activity: Active
[39]
  Activity: Non-Toxic
[15]
  Kd: Not Active
[16]
  Activity: Active
[40]
  Activity: 4%
[20]
  Activity: 6.2%
[22]
  IC50: 3 nM
[23]
  Activity: 0.26 g
[24]
  IC50: 6.7 nM
[41]
  Activity: Non-Toxic
[42]
  remaining at 72 h, 10 µM: 70.3%
[30]
  Activity: inactive
[43]
  remaining at 72 h, 10 µM: 47.6%
[44]
  concentration at 1 h: 6470 ng/g
[32]
  Activity: 15%
